One may read the pIC50 as −log10 of the IC50, conventionally taken in molar units. Read a low pIC50 as a high IC50.

pIC50: −log10 of the molar value.

Here are results for one compound from patent US5344841A, “Bis-(hydroxylakylamino)-anthraquinone inhibitors of protein kinase C” (Sphinx Pharmaceuticals Corporation, priority 1992, dated 1994).

One assay deals with NHEK human keratinocytes. Description: Human keratinocyte inhibition, 3H-thymidine incorporation. The format is cell-based. Here is the method:
Human tumor cells are trypsinized (0.05% trypsin, GIBCO), counted with a hemacytometer and seeded at a concentration of 10,000 cells/well in a 96 well microtiter plate. After allowing cells to attach to the surface overnight, the culture medium is aspirated and replaced with 100 μl of fresh medium. Test agents are diluted to determine dose response at 2× final concentration and added in quadruplicate at 100 μl/well to bring the total volume of each well to 200 μl. The microtiter plate is then incubated at 37° C. 5% CO2 overnight (18-24 hrs) before ^3 H-thymidine is added at a concentration of 0.5 μCi/well in 50 μl culture medium. The plate is incubated again for 4 hrs under the same conditions as above. […] Cells are checked microscopically to determine detachment from surfaces, and plates are then harvested with a cell harvester (PHD, Cambridge Technology, Inc.) Filter papers corresponding to wells are placed in scintillation vials and counted to determine the amount of ^3 H-thymidine incorporated by the cells. […]
Proliferating keratinocytes (NHEK cells purchased from Clonetics, Inc. San Diego, Calif.) in second passage were grown in Keratinocyte Growth Medium (KGM) (Clonetics, Inc.) Cells were trypsinized with 0.025% trypsin (Clonetics), counted with a hemacytometer (Scientific Products), and seeded at a concentration of 2,500 cells/well in a 96 well microtiter plate. […]
(In general: Dividing cells build labelled thymidine or BrdU into new DNA.)

Another assay relates to P388 murine leukemia. Description: P388 leukemia tumor assay in mice, survival time. The format is in vivo, mouse. From the text: P388 Leukemia Tumors. Mice were young adult, pathogen-free, BALA/c×DBA/2 F1 (i.e., CD2F1) females purchased from Charles River Laboratories. The tumor line was the P388 murine leukemia, ascites form, obtained from the National Cancer Institute (NCI) Tumor Repository (Frederick, Md.). The tumor was maintained in the serial passage in mice by periodic intraperitoneal (ip) implantation. For this experiment, 10^6 hemacytometer-counted P388 murine leukemia cells were implanted ip into mice on Day 0. The mice were randomized into one untreated control group of 20 and 15 test groups of six mice each. All drug treatment was delivered ip on the basis of the average body weight of each group. […] Body weights were recorded on Days 1, 5, 9, 11, and 18. Deaths were recorded daily. Dying mice were necropsied, and the presence or absence of ascites or splenomegaly was recorded. Drug effectiveness was assessed on the basis of the survival time. Results were expressed as a percentage of the control survival time (Survival Time=T/C×100%; T=test animals; C=control animals). The criterion for effectiveness was determined by: T/C×100≥125 percent.

In the assay on NHEK human keratinocytes, `CCN(CC)CC(O)CNc1ccc(NCC2CO2)c2c1C(=O)c1ccccc1C2=O` (stereo not drawn) [Compound 1b-1, 1-(3-diethylamino-2-hydroxypropylamino)-4-(2,3-epoxypropylamino)-9, 10-anthracenedione] showed a pIC50 of 7.40. In addition, the “% T/C p388 Leukemia” value in the assay on P388 murine leukemia (16 mg/kg, Q4D × 3, ip, survival time) was 140%. The “survival time of mice (in words)” value in the assay with P388 murine leukemia (all dosages and schedules) is reported as “effectively increased the survival time”.
